Experimental data from ChEMBL document CHEMBL1122283, “Angiotensin converting enzyme inhibitors: 1-glutarylindoline-2-carboxylic acids derivatives” (J Med Chem, 1983).

Columns and labels:
[1] = target: T1, Angiotensin-converting enzyme (Oryctolagus cuniculus, UniProt P12822); assay: In vitro inhibition of angiotensin I converting enzyme (ACE)
T1 sequence (P12822 whole entry): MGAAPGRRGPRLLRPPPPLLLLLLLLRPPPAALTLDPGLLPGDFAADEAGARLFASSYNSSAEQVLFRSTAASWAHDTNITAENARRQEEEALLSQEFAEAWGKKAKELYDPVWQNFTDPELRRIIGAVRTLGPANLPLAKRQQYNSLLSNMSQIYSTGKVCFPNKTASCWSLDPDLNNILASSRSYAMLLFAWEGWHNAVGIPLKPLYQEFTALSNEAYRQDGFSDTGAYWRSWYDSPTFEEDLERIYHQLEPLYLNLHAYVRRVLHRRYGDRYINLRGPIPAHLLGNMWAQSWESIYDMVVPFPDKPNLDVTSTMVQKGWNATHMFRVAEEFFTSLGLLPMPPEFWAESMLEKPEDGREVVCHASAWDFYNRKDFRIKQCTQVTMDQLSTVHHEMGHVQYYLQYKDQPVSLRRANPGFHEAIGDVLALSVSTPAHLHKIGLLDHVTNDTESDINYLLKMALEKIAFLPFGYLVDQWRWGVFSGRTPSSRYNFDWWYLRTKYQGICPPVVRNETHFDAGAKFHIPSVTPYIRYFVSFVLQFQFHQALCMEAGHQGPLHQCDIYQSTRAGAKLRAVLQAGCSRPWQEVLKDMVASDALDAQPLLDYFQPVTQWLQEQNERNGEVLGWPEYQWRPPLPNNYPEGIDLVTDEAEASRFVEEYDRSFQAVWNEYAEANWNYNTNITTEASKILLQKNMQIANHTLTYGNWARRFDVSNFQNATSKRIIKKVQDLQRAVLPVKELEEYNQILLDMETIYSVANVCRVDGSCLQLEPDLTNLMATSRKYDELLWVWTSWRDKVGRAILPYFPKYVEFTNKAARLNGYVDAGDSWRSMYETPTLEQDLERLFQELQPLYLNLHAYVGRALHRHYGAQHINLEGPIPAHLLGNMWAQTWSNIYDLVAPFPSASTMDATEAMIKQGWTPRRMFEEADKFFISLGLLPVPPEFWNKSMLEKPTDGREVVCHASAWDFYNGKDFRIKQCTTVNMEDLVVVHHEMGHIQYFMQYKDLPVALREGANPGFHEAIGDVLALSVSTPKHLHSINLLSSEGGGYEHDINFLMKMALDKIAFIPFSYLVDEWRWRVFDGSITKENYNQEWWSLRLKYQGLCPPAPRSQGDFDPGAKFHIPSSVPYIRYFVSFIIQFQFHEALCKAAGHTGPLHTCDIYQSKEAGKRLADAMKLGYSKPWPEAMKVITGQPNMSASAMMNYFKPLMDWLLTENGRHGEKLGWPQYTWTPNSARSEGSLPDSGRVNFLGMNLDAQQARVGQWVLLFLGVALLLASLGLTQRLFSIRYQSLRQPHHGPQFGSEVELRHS

Rattus norvegicus [2] = assay: Maximal change in blood pressure recorded during the 4-day test period in spontaneously hypertensive rat (SHR)at 30 mg/kg, po dose; assay type: functional
Rattus norvegicus [3] = assay: In vivo percent inhibition of angiotensin I pressor response 15 min after 0.4 mg/kg, iv administration in spontaneously hypertensive rat (SHR); assay type: functional; settings: 0.25 h
Rattus norvegicus [4] = assay: In vivo percent inhibition of angiotensin I pressor response 15 min after 0.10 mg/kg, iv administration in spontaneously hypertensive rat (SHR); assay type: functional; settings: 0.25 h
Rattus norvegicus [5] = assay: Maximal change in blood pressure recorded during the 4-day test period in spontaneously hypertensive rat (SHR)at 50 mg/kg, p.o. dose; assay type: functional; settings: route oral
Rattus norvegicus [6] = assay: In vivo percent inhibition of angiotensin I pressor response 15 min after 1 mg/kg, iv administration in spontaneously hypertensive rat (SHR); assay type: functional; settings: for inhibition in vivo at 1 mg/kg: Rattus norvegicus, iv, 0.25 h
Rattus norvegicus [7] = assay: Maximal change in blood pressure recorded during the 4-day test period in spontaneously hypertensive rat (SHR) at 30 mg/kg, po dose; assay type: functional
Rattus norvegicus [8] = assay: In vivo percent inhibition of angiotensin I pressor response 15 min after 10 mg/kg, iv administration in spontaneously hypertensive rat (SHR); assay type: functional; settings: 0.25 h
Rattus norvegicus [9] = assay: In vivo percent inhibition of angiotensin I pressor response 15 min after 10mg/kg, iv administration in spontaneously hypertensive rat (SHR); assay type: functional; settings: 0.25 h
[10] = target: T1, Angiotensin-converting enzyme; assay: In vitro inhibition of angiotensin converting enzyme
Rattus norvegicus [11] = assay: In vivo percent inhibition of angiotensin I pressor response 15 min after 2 mg/kg, iv administration in spontaneously hypertensive rat (SHR); assay type: functional; settings: 0.25 h
Rattus norvegicus [12] = assay: In vivo percent inhibition of angiotensin I pressor response 15 min after 0.3 mg/kg, iv administration in spontaneously hypertensive rat (SHR); assay type: functional; settings: 0.25 h
Rattus norvegicus [13] = assay: Maximal change in blood pressure recorded during the 4-day test period in spontaneously hypertensive rat (SHR)at 10mg/kg, po dose; assay type: functional

`CCOC(=O)[C@H](CCc1ccccc1)C[C@@H](C)C(=O)N1c2ccccc2CC1C(=O)O` (stereo not given in full) was tested, and the IC50 [1] was 11000 nM, the Max delta BP (Rattus norvegicus [2]) was -70 mmHg and the inhibition in vivo at 0.4 mg/kg (Rattus norvegicus [3]) was 89%.

`C[C@H](C[C@@H](CCc1ccccc1)C(=O)O)C(=O)N1c2ccccc2CC1C(=O)O` (stereo not given in full) showed an inhibition in vivo at 0.1 mg/kg (Rattus norvegicus [4]) of 60% and an IC50 [1] of 4.8 nM.

Work on `CCOC(=O)CC[C@@H](C)C(=O)N1c2ccccc2CC1C(=O)O` (stereo not given in full) yielded an inhibition in vivo at 0.1 mg/kg (Rattus norvegicus [4]) of 27%, an IC50 [1] of 11000 nM and a Max delta BP (Rattus norvegicus [5]) of -66 mmHg.

For `CC(C)(CC(=O)O)CC(=O)N1c2ccccc2CC1C(=O)O` (stereo not given), the IC50 [1] was 290000 nM.

`C[C@H](C[C@@H](C)C(=O)N1CCC[C@H]1C(=O)O)C(=O)O` was tested, and the IC50 [1] was 4800 nM.

Molecule `C[C@H](CCC(=O)O)C(=O)N1c2ccccc2CC1C(=O)O` (stereo not given in full) has an IC50 [1] of 44 nM, an inhibition in vivo at 1 mg/kg (Rattus norvegicus [6]) of 94% and a Max delta BP (Rattus norvegicus [2]) of -35 mmHg.

`CC(CC(=O)O)C(=O)N1c2ccccc2C[C@H]1C(=O)O` (stereo not given in full) showed an IC50 [1] of 300 nM and an inhibition in vivo at 1 mg/kg (Rattus norvegicus [6]) of 27%.

For `O=C(O)CCCC(=O)N1c2ccccc2CC1C(=O)O` (stereo not given), the IC50 [1] was 260 nM, the Max delta BP (Rattus norvegicus [7]) was -37 mmHg and the inhibition in vivo at 10 mg/kg (Rattus norvegicus [8]) was 78%.

For `C[C@H](C[C@@H](C)C(=O)N1c2ccccc2CC1C(=O)O)C(=O)O` (stereo not given in full), the inhibition in vivo at 0.1 mg/kg (Rattus norvegicus [4]) was 45%, the IC50 [1] was 28 nM and the Max delta BP (Rattus norvegicus [5]) was -39 mmHg.

`CC(CCC(=O)O)C(=O)N1c2ccccc2CC1C(=O)O` (stereo not given) showed an IC50 [1] of 64 nM, an inhibition in vivo at 1 mg/kg (Rattus norvegicus [6]) of 84% and a Max delta BP (Rattus norvegicus [5]) of -61 mmHg.

In the case of `CC(CCC(N)=O)C(=O)N1c2ccccc2CC1C(=O)O` (stereo not given), the inhibition in vivo at 10 mg/kg (Rattus norvegicus [9]) is reported as 71% and the IC50 [1] is reported as 16000 nM.

`COC(=O)CCC(C)C(=O)N1c2ccccc2CC1C(=O)O` (stereo not given) showed an inhibition in vivo at 0.1 mg/kg (Rattus norvegicus [4]) of 45%, an IC50 [1] of 6900 nM and a Max delta BP (Rattus norvegicus [5]) of -61 mmHg.

For `Cc1ccc2c(c1)CC(C(=O)O)N2C(=O)[C@H](C)C[C@@H](C)C(=O)O` (stereo not given in full), the IC50 [10] was 490 nM and the inhibition in vivo at 2 mg/kg (Rattus norvegicus [11]) was 40%.

`O=C(O)CCCC(=O)N1CCC[C@H]1C(=O)O` showed an IC50 [1] of 70000 nM.

For `COc1ccc2c(c1)CC(C(=O)O)N2C(=O)[C@H](C)C[C@@H](C)C(=O)O` (stereo not given in full), the IC50 [1] was 110 nM and the inhibition in vivo at 1 mg/kg (Rattus norvegicus [6]) was 56%.

For `CCOC(=O)[C@@H](CCC(=O)N1c2ccccc2CC1C(=O)O)CCc1ccccc1` (stereo not given in full), the IC50 [1] was 4300 nM and the inhibition in vivo at 1 mg/kg (Rattus norvegicus [6]) was 17%.

`CC(C)C(CCC(=O)O)C(=O)N1c2ccccc2CC1C(=O)O` (stereo not given) showed an IC50 [1] of 50 nM and an inhibition in vivo at 1 mg/kg (Rattus norvegicus [6]) of 77%.

`O=C(O)C1Cc2ccccc2N1C(=O)CC[C@@H](CCc1ccccc1)C(=O)O` (stereo not given in full) gave an IC50 [1] of 33 nM.

With `CC(CCC(=O)N1c2ccccc2CC1C(=O)O)C(=O)O` (stereo not given) the inhibition in vivo at 10 mg/kg (Rattus norvegicus [9]) was 41% and the IC50 [1] was 920 nM.

Work on `CCOC(=O)C1Cc2ccccc2N1C(=O)CCC(C)C(=O)O` (stereo not given) yielded an inhibition in vivo at 10 mg/kg (Rattus norvegicus [9]) of 11% and an IC50 [1] of 170000 nM.

With `O=C(O)C(CCC(=O)N1c2ccccc2CC1C(=O)O)CCc1ccccc1` (stereo not given) the inhibition in vivo at 10 mg/kg (Rattus norvegicus [9]) was 75%, the IC50 [1] was 39 nM and the Max delta BP (Rattus norvegicus [5]) was -46 mmHg.

With `CC(CC(=O)O)CC(=O)N1c2ccccc2CC1C(=O)O` (stereo not given) the inhibition in vivo at 10 mg/kg (Rattus norvegicus [9]) was 20% and the IC50 [1] was 37000 nM.

Molecule `CCOC(=O)C1Cc2ccccc2N1C(=O)C(C)CC(C)C(=O)O` (stereo not given) has an inhibition in vivo at 10 mg/kg (Rattus norvegicus [9]) of 84%, an IC50 [1] of 8800 nM and a Max delta BP (Rattus norvegicus [5]) of -33 mmHg.

`CCOC(=O)C1Cc2ccccc2N1C(=O)[C@H](C)C[C@@H](C)C(=O)O` (stereo not given in full) showed an IC50 [1] of 28000 nM and an inhibition in vivo at 0.3 mg/kg (Rattus norvegicus [12]) of 16%.

`CCOC(=O)[C@H](C)C[C@@H](C)C(=O)N1c2ccccc2CC1C(=O)O` (stereo not given in full) was tested, and the inhibition in vivo at 0.1 mg/kg (Rattus norvegicus [4]) was 52%, the IC50 [1] was 5500 nM and the Max delta BP (Rattus norvegicus [5]) was -75 mmHg.

For `C[C@H](C[C@@H](C)C(=O)N1c2ccc(Cl)cc2CC1C(=O)O)C(=O)O` (stereo not given in full), the IC50 [1] was 440 nM and the inhibition in vivo at 2 mg/kg (Rattus norvegicus [11]) was 32%.

With `CC(CC(C)C(=O)N1c2ccccc2CC1C(=O)O)C(=O)O` (stereo in doubt; 6m) the IC50 [1] was 190 nM and the inhibition in vivo at 1 mg/kg (Rattus norvegicus [6]) was 76%.

Work on `CC(CC(C)C(=O)N1c2ccccc2CC1C(=O)O)C(=O)O` (stereo in doubt; 6n) yielded an IC50 [1] of 54 nM and an Inhibition (Rattus norvegicus [6]; 1 mg/kg) of 84%.

`C[C@H](CS)C(=O)N1CCC[C@H]1C(=O)O` [CAPTOPRIL] showed an inhibition in vivo at 1 mg/kg (Rattus norvegicus [6]) of 90%, a Max delta BP (Rattus norvegicus [2]) of -55 mmHg and a Max delta BP (Rattus norvegicus [13]) of -45 mmHg.
